Test results reported in ChEMBL document CHEMBL1144929, “Determination of conformer-specific partition coefficients in octanol/water systems” (J Med Chem, 2003).

Tests used:
Type in all cases: physicochemical
[1] = Partition coefficient of t-rotamer in octanol water system
[2] = Partition coefficient of h-rotamer in octanol water system
[3] = Partition coefficient of g-rotamer in octanol water system
[4] = Partition coefficient (logP); details: octanol/water

CC(C)(C)NCC(O)c1cc(Cl)c(N)c(Cl)c1 (centres undefined) [CLENBUTEROL]
logP [1]: 2.87
logP [2]: 2.57
logP [3]: 2.14
logP [4]: 2.71
